Columns and labels:
[1] = tested on: SMN2 minigene mRNA (SMN2-A minigene) in HEK293H cells; assay: SMN2 minigene mRNA splicing RT-qPCR assay in cultured cells; assay type: cell-based, human; conditions: Homo sapiens, HEK293-H; concentration increasing full length SMN2 mRNA 1.5-fold relative to vehicle-treated cells; HEK293H cells with SMN2-A minigene, 24 hours, 7-point concentration data; read-out: EC1.5x for production of full length SMN2 mRNA
Outline: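 EC1.5× values derive from a 24 h treatment of SMN2-A minigene HEK293H cells and GAPDH-normalized RT-qPCR of exon 7-included minigene mRNA relative to vehicle-treated cells.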

[2] = tested on: Smn protein in SMA patient fibroblast cells (GM03813); assay: Smn protein assay in cultured cells (SMN HTRF); assay type: cell-based, human; conditions: SMA patient fibroblast cells, 48 hours; for EC1.5x for Smn protein expression: 7-point concentration curve, SMN HTRF, concentration producing 1.5 times Smn protein vs DMSO vehicle control; for maximum fold (Fold) increase of Smn protein: 7-point concentration data, fold relative to vehicle control
Outline: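 Cells were cultured 72 h, seeded at 5,000/well and dosed with seven concentrations (3.16-fold apart) for 48 h. HTRF on lysates, read at 665 and 620 nm, gave blank-corrected ΔF values relative to DMSO. Potency is reported as EC1.5×, efficacy as maximal fold Smn increase.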

SMILES	EC (1.5-fold increase) [1] [µM]	EC1.5x for Smn protein expression [2]	maximum fold (Fold) increase of Smn protein [2]	melting point [°C]
Cc1cc(-c2cc(=O)n3cc(N4CCNCC4)ccc3n2)cc2cn(C)nc12 [Compound 738, 2-(2,7-dimethyl-2H-indazol-5-yl)-7-(piperazin-1-yl)-4H-pyrido[1,2-a]pyrimidin-4-one]	< 0.1	**** (an EC1.5x≤0.3 μM is indicated by four stars (****))	***** (a fold increase >1.65 is indicated by five stars (*****))	194 to 196
Cc1cc(-c2cc(=O)n3cc(C4CCNCC4)ccc3n2)cc2cn(C)nc12 [Compound 739, 2-(2,7-dimethyl-2H-indazol-5-yl)-7-(piperidin-4-yl)-4H-pyrido[1,2-a]pyrimidin-4-one]	< 0.1	**** (an EC1.5x≤0.3 μM is indicated by four stars (****))	***** (a fold increase >1.65 is indicated by five stars (*****))	228 to 230
Cc1cn2nc(-c3cc(=O)n4cc(C#CCN)ccc4n3)cc2c(C)n1 [Compound 740, 7-(3-aminoprop-1-yn-1-yl)-2-(4,6-dimethylpyrazolo[1,5-a]pyrazin-2-yl)-4H-pyrido[1,2-a]pyrimidin-4-one]	0.3 to 1	*** (an EC1.5× between >0.3 μM and ≤1 μM is indicated by three stars (***))	***** (a fold increase >1.65 is indicated by five stars (*****))	242 to 244
Cc1cc(-c2cc(=O)n3cc(N4CCN[C@H](C)C4)ccc3n2)cc2cn(C)nc12 [Compound 741, 2-(2,7-dimethyl-2H-indazol-5-yl)-7-[(3R)-3-methylpiperazin-1-yl]-4H-pyrido[1,2-a]pyrimidin-4-one]	< 0.1	**** (an EC1.5x≤0.3 μM is indicated by four stars (****))	***** (a fold increase >1.65 is indicated by five stars (*****))	170 to 172
Cc1cn2cc(-c3cc(=O)n4cc(C5=CCNCC5)ccc4n3)cc2c(C)n1 [Compound 743, 2-(1,3-dimethylpyrrolo[1,2-a]pyrazin-7-yl)-7-(1,2,3,6-tetrahydropyridin-4-yl)-4H-pyrido[1,2-a]pyrimidin-4-one]	< 0.1	**** (an EC1.5x≤0.3 μM is indicated by four stars (****))	***** (a fold increase >1.65 is indicated by five stars (*****))	189 to 191
Cc1cn2nc(-c3cc(=O)n4cc(C5=CC(C)(C)NC(C)(C)C5)ccc4n3)cc2c(C)n1 [Compound 744, 2-(4,6-dimethylpyrazolo[1,5-a]pyrazin-2-yl)-7-(2,2,6,6-tetramethyl-1,2,3,6-tetrahydropyridin-4-yl)-4H-pyrido[1,2-a]pyrimidin-4-one]	< 0.1	*** (an EC1.5× between >0.3 μM and ≤1 μM is indicated by three stars (***))	*** (a fold increase between >1.35 and ≤1.5 is indicated by three stars (***))	218 to 221
CCc1nc(C)cn2nc(-c3cc(=O)n4cc(C5=CC(C)(C)NC(C)(C)C5)ccc4n3)cc12 [Compound 745, 2-(4-ethyl-6-methylpyrazolo[1,5-a]pyrazin-2-yl)-7-(2,2,6,6-tetramethyl-1,2,3,6-tetrahydropyridin-4-yl)-4H-pyrido[1,2-a]pyrimidin-4-one]	< 0.1	**** (an EC1.5x≤0.3 μM is indicated by four stars (****))	***** (a fold increase >1.65 is indicated by five stars (*****))	255 to 258
Cc1cn2nc(-c3cc(=O)n4cc(N5C[C@H]6CNC[C@H]6C5)ccc4n3)cc2c(C)n1 [Compound 746, 2-(4,6-dimethylpyrazolo[1,5-a]pyrazin-2-yl)-7-[(3aR,6aS)-hexahydropyrrolo[3,4-c]pyrrol-2(1H)-yl]-4H-pyrido[1,2-a]pyrimidin-4-one]	< 0.1	**** (an EC1.5x≤0.3 μM is indicated by four stars (****))	***** (a fold increase >1.65 is indicated by five stars (*****))	239 to 242
CCc1nc(C)cn2nc(-c3cc(=O)n4cc(N5C[C@H]6CNC[C@H]6C5)ccc4n3)cc12 [Compound 747, 2-(4-ethyl-6-methylpyrazolo[1,5-a]pyrazin-2-yl)-7-[(3aR,6aS)-hexahydropyrrolo[3,4-c]pyrrol-2(1H)-yl]-4H-pyrido[1,2-a]pyrimidin-4-one]	< 0.1	**** (an EC1.5x≤0.3 μM is indicated by four stars (****))	***** (a fold increase >1.65 is indicated by five stars (*****))	246 to 249
CCc1nc(C)cn2cc(-c3cc(=O)n4cc(N5C[C@@H](C)N[C@@H](C)C5)ccc4n3)cc12 [Compound 748, 7-[(3R,5S)-3,5-dimethylpiperazin-1-yl]-2-(1-ethyl-3-methylpyrrolo[1,2-a]pyrazin-7-yl)-4H-pyrido[1,2-a]pyrimidin-4-one]	< 0.1	**** (an EC1.5x≤0.3 μM is indicated by four stars (****))	***** (a fold increase >1.65 is indicated by five stars (*****))	238 to 241
CCc1nc(C)cn2cc(-c3cc(=O)n4cc(N5CCCNCC5)ccc4n3)cc12 [Compound 749, 7-(1,4-diazepan-1-yl)-2-(1-ethyl-3-methylpyrrolo[1,2-a]pyrazin-7-yl)-4H-pyrido[1,2-a]pyrimidin-4-one]	< 0.1	**** (an EC1.5x≤0.3 μM is indicated by four stars (****))	***** (a fold increase >1.65 is indicated by five stars (*****))	200 to 202
Cc1cc(-c2cc(=O)n3cc(N4CCN[C@@H](C)C4)ccc3n2)cc2cn(C)nc12 [Compound 750, 2-(2,7-dimethyl-2H-indazol-5-yl)-7-[(3S)-3-methylpiperazin-1-yl]-4H-pyrido[1,2-a]pyrimidin-4-one]	< 0.1	**** (an EC1.5x≤0.3 μM is indicated by four stars (****))	***** (a fold increase >1.65 is indicated by five stars (*****))	308 to 310
Cc1cc(-c2cc(=O)n3cc(N4CCN(C)[C@@H](C)C4)ccc3n2)cc2cn(C)nc12 [Compound 751, 2-(2,7-dimethyl-2H-indazol-5-yl)-7-[(3S)-3,4-dimethylpiperazin-1-yl]-4H-pyrido[1,2-a]pyrimidin-4-one]	< 0.1	**** (an EC1.5x≤0.3 μM is indicated by four stars (****))	***** (a fold increase >1.65 is indicated by five stars (*****))	202 to 204
Cc1cc(-c2cc(=O)n3cc(C4CCN(C)CC4)ccc3n2)cc2cn(C)nc12 [Compound 752, 2-(2,7-dimethyl-2H-indazol-5-yl)-7-(1-methylpiperidin-4-yl)-4H-pyrido[1,2-a]pyrimidin-4-one]	< 0.1	**** (an EC1.5x≤0.3 μM is indicated by four stars (****))	***** (a fold increase >1.65 is indicated by five stars (*****))	208 to 210
CCN1CCC(c2ccc3nc(-c4cc(C)c5nn(C)cc5c4)cc(=O)n3c2)CC1 [Compound 753, 2-(2,7-dimethyl-2H-indazol-5-yl)-7-(1-ethylpiperidin-4-yl)-4H-pyrido[1,2-a]pyrimidin-4-one]	< 0.1	**** (an EC1.5x≤0.3 μM is indicated by four stars (****))	***** (a fold increase >1.65 is indicated by five stars (*****))	162 to 164
Cc1cc(N2CCNCC2)cn2c(=O)cc(-c3ccc4nn(C)cc4c3)nc12 [Compound 754, 9-methyl-2-(2-methyl-2H-indazol-5-yl)-7-(piperazin-1-yl)-4H-pyrido[1,2-a]pyrimidin-4-one]	< 0.1	**** (an EC1.5x≤0.3 μM is indicated by four stars (****))	***** (a fold increase >1.65 is indicated by five stars (*****))	233 to 243
Cc1cn2nc(-c3cc(=O)n4cc(N5CC(N(C)C)C5)ccc4n3)cc2c(C)n1 [Compound 757, 7-[3-(dimethylamino)azetidin-1-yl]-2-(4,6-dimethylpyrazolo[1,5-a]pyrazin-2-yl)-4H-pyrido[1,2-a]pyrimidin-4-one]	0.3 to 1	*** (an EC1.5× between >0.3 μM and ≤1 μM is indicated by three stars (***))	**** (a fold increase between >1.5 and ≤1.65 is indicated by four stars (****))	226 to 228
CCN(CC)C1CN(c2ccc3nc(-c4cc5c(C)nc(C)cn5n4)cc(=O)n3c2)C1 [Compound 758, 7-[3-(diethylamino)azetidin-1-yl]-2-(4,6-dimethylpyrazolo[1,5-a]pyrazin-2-yl)-4H-pyrido[1,2-a]pyrimidin-4-one]	0.3 to 1	–	*** (a fold increase between >1.35 and ≤1.5 is indicated by three stars (***))	231 to 233

Reference: patent publication US11753407B2, “Compounds for treating spinal muscular atrophy” (PTC Therapeutics, Inc., priority 2012, dated 2023)
